# Source: ChEMBL document CHEMBL5518232, “Discovery of New Tricyclic Oxime Sampangine Derivatives as Potent Antifungal Agents for the Treatment of Cryptococcosis and Candidiasis” (J Med Chem, 2024)
# How the values were obtained:
# Type in all cases: functional
# [1] = tested on: Candida albicans; assay: Antifungal activity against Candida albicans SC5314 assessed as reduction in fungal growth incubated for 48 hrs by liquid based microdilution method
# [2] = tested on: Candida albicans; assay: Antifungal activity against Candida albicans 0304103 assessed as reduction in fungal growth incubated for 48 hrs by liquid based microdilution method
# [3] = tested on: Candida tropicalis; assay: Antifungal activity against Candida tropicalis 10186 assessed as reduction in fungal growth incubated for 48 hrs by liquid based microdilution method
# [4] = tested on: Nakaseomyces glabratus; assay: Antifungal activity against Candida glabrata 9073 assessed as reduction in fungal growth incubated for 48 hrs by liquid based microdilution method
# [5] = tested on: Cryptococcus neoformans; assay: Antifungal activity against Cryptococcus neoformans H99 assessed as reduction in fungal growth incubated for 72 hrs by liquid based microdilution method
# [6] = tested on: Candida albicans; assay: Synergistic antifungal activity against Candida albicans 0304103 assessed as inhibition of fungal growth incubated for 48 hrs in presence of fluconazole by checkerboard microdilution assay
# [7] = tested on: Candida albicans; assay: Synergistic antifungal activity against Candida albicans 0304103 assessed as fractional inhibitory concentration index by measuring ratio of MIC80 for compound and synergetic / MIC80 for compound alone + MIC80 for fluconazole synergetic / MIC80 for fluconazole alone
# [8] = tested on: Cryptococcus neoformans; assay: Antifungal activity against Cryptococcus neoformans assessed as reduction in fungal growth incubated for 24 hrs by broth microdilution method
# [9] = tested on: Candida albicans; assay: Antifungal activity against Candida albicans assessed as reduction in fungal growth incubated for 24 hrs by broth microdilution method
# [10] = tested on: Cryptococcus neoformans; assay: Antifungal activity against Cryptococcus neoformans ATCC 34877 assessed as reduction in fungal growth incubated for 72 hrs by liquid based microdilution method
# [11] = Antifungal activity against Cryptococcus gattii VGI ATCC 14116 assessed as reduction in fungal growth incubated for 72 hrs by liquid based microdilution method
Compound,MIC80 [1],MIC80 [2],MIC80 [3],MIC80 [4],MIC80 [5],MIC80 [6],fractional inhibitory concentration index (FICI) [7],MIC80 [8],MIC80 [9],MIC80 [10],MIC80 [11]
CO/N=C1/c2ccsc2C(=O)c2ccsc21,> 64 µg/mL,> 64 µg/mL,> 64 µg/mL,> 64 µg/mL,64 µg/mL,2 µg/mL,0.047,,,,
O=C1c2ccccc2-c2nccc3ccnc1c23 [SAMPANGINE],,,,,,,,2 µg/mL,0.5 µg/mL,,
CO/N=C1/c2ccccc2C(=O)c2c(C)noc21,> 64 µg/mL,> 64 µg/mL,> 64 µg/mL,> 64 µg/mL,32 µg/mL,2 µg/mL,0.047,,,,
CCc1noc2c1C(=O)c1sccc1/C2=N/OC,> 64 µg/mL,> 64 µg/mL,> 64 µg/mL,> 64 µg/mL,0.13 µg/mL,2 µg/mL,0.047,,,0.13 µg/mL,4 µg/mL
CCO/N=C1/c2ccccc2C(=O)c2c(C)noc21,> 64 µg/mL,> 64 µg/mL,> 64 µg/mL,> 64 µg/mL,> 64 µg/mL,2 µg/mL,0.039,,,,
CCCc1noc2c1C(=O)c1sccc1/C2=N/OC,> 64 µg/mL,> 64 µg/mL,> 64 µg/mL,> 64 µg/mL,4 µg/mL,8 µg/mL,0.25,,,2 µg/mL,16 µg/mL
Cc1noc2c1C(=O)c1sccc1/C2=N/O,> 64 µg/mL,> 64 µg/mL,> 64 µg/mL,> 64 µg/mL,0.25 µg/mL,2 µg/mL,0.094,,,8 µg/mL,4 µg/mL
